Source: ChEMBL document CHEMBL3286257, “Development of second generation EP2 antagonists with high selectivity” (Eur J Med Chem, 2014)

target: Prostaglandin E2 receptor EP2 subtype (Homo sapiens) (UniProt P43116); experiment: Antagonist activity at EP2 receptor (unknown origin) expressed in rat C6 cells assessed as inhibition of PGE2-induced response; assay type: cell-based
Sequence (P43116 whole entry): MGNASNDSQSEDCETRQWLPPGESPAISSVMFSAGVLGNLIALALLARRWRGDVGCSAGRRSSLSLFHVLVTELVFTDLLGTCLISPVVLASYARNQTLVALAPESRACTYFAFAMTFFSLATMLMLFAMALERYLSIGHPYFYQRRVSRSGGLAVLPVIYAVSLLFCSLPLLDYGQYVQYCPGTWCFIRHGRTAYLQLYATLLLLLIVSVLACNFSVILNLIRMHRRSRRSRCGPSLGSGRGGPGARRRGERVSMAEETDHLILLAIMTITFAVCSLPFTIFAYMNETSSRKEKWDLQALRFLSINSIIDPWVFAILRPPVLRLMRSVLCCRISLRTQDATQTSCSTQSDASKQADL

Row | SMILES | Kb
1 | CCN(CC)c1ccc(C(=O)NCCn2cnc3ccccc32)cc1 | > 1000 nM
2 | Cc1cc2ccccc2n1CCNC(=O)c1ccc(C2CCCCC2)cc1 | 120 nM
3 | Cc1cc2ccccc2n1CCNC(=O)c1ccc2[nH]c(=S)[nH]c(=O)c2c1 | 84.1 nM
4 | CCN(CC)C(=O)c1ccc(C(=O)NCCc2c(C)[nH]c3ccccc23)cc1 | > 1000 nM
5 | Cc1cc2ccccc2n1CCNC(=O)c1cccc(N2CCOCC2)c1 | > 1000 nM
6 | CC(=O)Nc1ccc(C(=O)NCCn2c(C)cc3ccccc32)cc1 | 97 nM
7 | CCN(CC)c1ccc(C(=O)NCCn2c(C(F)(F)F)cc3ccccc32)cc1 | 150 nM
8 | Cc1cc2ccccc2n1CCNC(=O)c1ccc(N)cc1 | 210 nM
9 | Cc1cc2ccccc2n1CCNC(=O)c1ccc(CNC(=O)OC(C)(C)C)cc1 | 84 nM
10 | Cc1cc2ccccc2n1CCNC(=O)c1ccc(C#N)cc1F | 280 nM
11 | Cc1cc2ccccc2n1CCNC(=O)c1ccc(CCN)cc1 | 1220 nM
12 | CCN(CC)c1ccc(C(=O)NCCn2c(C)cc3ccccc32)cc1OC | 61.2 nM
13 | CC(=O)N1CCN(c2ccc(C(=O)NCCn3c(C)cc4ccccc43)cc2)CC1 | 50.2 nM
14 | O=C(NCCn1c(C(F)(F)F)cc2ccccc21)c1ccc(N2CCOCC2)cc1 | 120 nM
15 | COc1cc(C(=O)NCCn2c(C)cc3ccccc32)cc(OC)c1OC | > 1000 nM
16 | CCNc1ccc(C(=O)NCCn2c(C)cc3ccccc32)cc1 | 15.5 nM
17 | Cc1cc2ccccc2n1CCNC(=O)c1ccc(N2CCNCC2)cc1 | 410 nM
18 | Cc1cc2ccccc2n1CCNC(=O)c1ccc(CN2CCN(C)CC2)cc1 | > 1000 nM
